In patent US5849731A, “Indole derivatives and medical application thereof” (Toray Industries, Inc., priority 1995, dated 1998):
Where two headings read alike, the source gives them in different places.

What was measured:
δ-opioid [1] = molecular target: T1, δ-opioid (Mus musculus, UniProt P32300); test: δ-opioid antagonism against DPDPE in mouse vas deferens (MVD); assay type: biochemical, mouse (male ddy strain); conditions: for pA2: MVD, 100 nM sample compound added 20 minutes before cumulative DPDPE, Schild method
T1 construct: Each of the vas deferens isolated from the mice was hung in a Magnus tube; from tissue; host or cells: isolated vas deferens of male ddy strain mice
T1 sequence (P32300 whole entry): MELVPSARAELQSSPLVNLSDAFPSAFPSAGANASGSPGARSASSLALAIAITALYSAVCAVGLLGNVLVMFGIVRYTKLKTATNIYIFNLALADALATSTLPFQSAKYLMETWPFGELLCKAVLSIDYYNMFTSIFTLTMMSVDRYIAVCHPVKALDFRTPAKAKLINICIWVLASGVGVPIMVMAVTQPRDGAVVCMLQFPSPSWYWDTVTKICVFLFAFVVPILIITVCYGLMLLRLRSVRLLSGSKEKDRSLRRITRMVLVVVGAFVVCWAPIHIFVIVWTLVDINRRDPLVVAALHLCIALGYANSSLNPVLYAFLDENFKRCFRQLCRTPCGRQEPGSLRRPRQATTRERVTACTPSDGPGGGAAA
Experimental: (§1) Using mouse vas deferens (MVD), antagonistic compounds were examined for antagonism against a δ-opioid agonist DPDPE, and agonistic compounds were examined for inhibitory activity against MVD contraction by electric stimulation, and for antagonism by a δ-opioid antagonist NTI.
(§2) Male ddy strain mice were used in this experiment. Each of the vas deferens isolated from the mice was hung in a Magnus tube which was filled with a Krebes-Henseleit solution (NaCl […]; KCl 4.7 mM; CaCl2 2.5 mM; KH2 PO4 1.1 mM; NaHCO3 25 mM; glucose 11 mM), and aerated with a gas of 5% carbon dioxide and 95% oxygen and maintained at 37° C. Electric stimulation was applied through upper and lower ring-shaped platinum electrodes at 0.1 Hz and 5.0 mS. Tissue contraction was recorded on a polygraph using an isometric transducer.
Initially, DPDPE was added in a cumulative manner to determine the IC50 value (concentration for 50% inhibition of contraction induced by electric stimulation). Next, 100 nM of a sample compound was added to the system beforehand, and 20 minutes later, DPDPE was added in a cumulative manner. According to the above procedure, the ratio of the IC50 value of DPDPE in the presence of the sample compound to that in the absence of it was determined, and the pA2 value was calculated in accordance with the Schild, et al.'s method [Schild, H. O., Br. J. Pharamacol. Chamother. 4, 277 (1949)].

capsaicin-induced cough = test: Antitussive action in rat, capsaicin-induced cough; assay type: in vivo; conditions: ip, 0.5 h, dosage for 50% cough inhibition, intraperitoneal, 10% DMSO solution, 30 minutes after administration
Experimental: Evaluation of Antitussive Action in Rat as a Model for Capsaicin-Induced Cough
Cough was induced by forcing rats to inhale capsaicin (60 μM) which was nebulized by an ultrasonic nebulizer, and fed to caps over the rats' heads through silicone tubes by a respirator. Capsaicin was fed for inhalation at a rate of 70 times/min. and 10 ml each time.
Two hundred and seventy minutes before the drug administration, capsaicin was inhaled for 5 minutes, and inducement of coughing was confirmed during this period. Thirty minutes after the drug administration, capsaicin was inhaled for 5 minutes, and the number of induced coughs during capsaicin inhalation was counted. Antitussive effect was evaluated by determining an inhibitory ratio, namely, the ratio of the number of coughs after the drug administration to that before the drug administration. Capsaicin was dissolved in saline. Each drug was dissolved in a 10% DMSO solution and intraperitoneally administered. The effect of the drug is expressed with an ED50 value which is the dosage for 50% cough inhibition

δ-opioid [2] = molecular target: T1, δ-opioid; test: δ-opioid agonism: inhibition of electrically stimulated mouse vas deferens (MVD) contraction, antagonism by NTI; assay type: biochemical, mouse (male ddy strain); design: Ke: unit not given here; conditions: for Ke: against NTI added 20 minutes before, Ke=[NTI Concentration]/[(IC50 ratio)-1]
Experimental: as §1, §2
Initially, a sample compound was added in a cumulative manner to determine the IC50 value (concentration for 50% inhibition of contraction induced by electric stimulation). Next, […] was added to the system beforehand, and 20 minutes later, the sample compound was added in a cumulative manner. According to the above procedure, the ratio of the IC50 values of the sample compound in the presence of NTI to that in the absence of NTI was determined, and the Ke value was calculated in accordance with the following equation.
Ke=[NTI Concentration]/[(IC50 ratio)-1]

acetic acid writhing = test: Analgesic action, acetic acid writhing test in mouse; assay type: in vivo, mouse (ddY strain); conditions: sc, dorsal-subcutaneous, 15 minutes before acetic acid, writhing reactions over 10 minutes
Experimental: Evaluation of Analgesic Action by Acetic Acid Writhing Test in Mouse
Five-week-old ddY strain mice were subjected to this experiment. A 0.6% acetic acid solution was intraperitoneally administered at a volume of 0.1 ml/10 g·.body weight. Analgesic activity was evaluated with an index which was the number of writhing reactions occurring over 10 minutes from 10 minutes after administration. The drug to be evaluated was dorsal-subcutaneously administered 15 minutes before the administration of acetic acid.

Structure (SMILES)	Kb (δ-opioid [1]) [nM]	ED50 (capsaicin-induced cough) [mg/kg]	Ke (δ-opioid [2])	also measured
Oc1ccc2c3c1O[C@H]1c4c(c5cccc6c5n4Cc4ccccc4-6)C[C@@]4(O)[C@@H](C2)N(CC2CC2)CC[C@]314 [Compound 3, 17-cyclopropylmethyl-6,7-didehydro-4,5α-epoxy-3,14β-dihydroxy-1',7'-(2",3"-benzotrimethylene)-6,7,2',3'-indolomorphinan]	2.51	0.00437		
Oc1ccc2c3c1O[C@H]1c4c(c5ccc6cccc7c6c5n4CC7)C[C@@]4(O)[C@@H](C2)N(CC2CC2)CC[C@]314 [Compound 2, 17-cyclopropylmethyl-6,7-didehydro-4,5α-epoxy-3,14β-dihydroxy-1',3"-ethylene-6',7'-benzo-6,7,2',3'-indolomorphinan]	2	0.00171		
C=CCCN1CC[C@]23c4c5ccc(O)c4O[C@H]2c2c(c4cccc6c4n2CCC6)C[C@@]3(O)[C@H]1C5 [Compound 28, 17-(3-butenyl)-6,7-didehydro-4,5α-epoxy-3,14β-dihydroxy-1',7'-trimethylene-6,7,2',3'-indolomorphinan]			0.05	IC50 (δ-opioid [2]): 15.8 nM; ED50 (acetic acid writhing): 16.7 mg/kg
Cc1cc2c3c(c1)c1c(n3CCC2)[C@@H]2Oc3c(O)ccc4c3[C@@]23CCN(CC2CC2)[C@H](C4)[C@]3(O)C1 [Compound 7, 17-cyclopropylmethyl-6,7-didehydro-4,5α-epoxy-3,14β-dihydroxy-1',7'-trimethylene-5'-methyl-6,7,2',3'-indolomorphinan]	5.01	0.0163		
Oc1ccc2c3c1O[C@H]1c4c(c5cccc6c5n4CCCC6)C[C@@]4(O)[C@@H](C2)N(CC2CC2)CC[C@]314 [Compound 9, 17-cyclopropylmethyl-6,7-didehydro-4,5α-epoxy-3,14β-dihydroxy-1',7'-tetramethylene-6,7,2',3'-indolomorphinan]		0.0123		pA2 (δ-opioid [1]): 8.5
CN1CC[C@]23c4c5ccc(O)c4O[C@H]2c2c(c4cccc6c4n2CCC6)C[C@@]3(O)[C@H]1C5 [Compound 55, 17-Methyl-6,7-didehydro-4,5α-epoxy-3,14β-dihydroxy-1',7'-trimethylene-6,7,2',3'-indolomorphinan]			0.21	IC50 (δ-opioid [2]): 18.2 nM
COc1ccc2c3c(n4c2c1CCC4)[C@@H]1Oc2c(O)ccc4c2[C@@]12CCN(CC1CC1)[C@H](C4)[C@]2(O)C3 [Compound 6, 17-cyclopropylmethyl-6,7-didehydro-4,5α-epoxy-3,14β-dihydroxy-1',7'-trimethylene-6'-methoxy-6,7,2',3'-indolomorphinan]	3.16	0.00943		
Oc1ccc2c3c1O[C@H]1c4c(c5cccc6c5n4CCC6)C[C@@]4(O)[C@@H](C2)N(CCc2ccccc2)CC[C@]314 [Compound 57, 17-phenethyl-6,7-didehydro-4,5α-epoxy-3,14β-dihydroxy-1',7'-trimethylene-6,7,2',3'-indolomorphinan]			0.06	IC50 (δ-opioid [2]; concentration for 50% inhibition of MVD contraction induced by electric stimulation): 9.71 nM
Oc1ccc2c3c1O[C@H]1c4c(c5cc(F)cc6c5n4CCC6)C[C@@]4(O)[C@@H](C2)N(CC2CC2)CC[C@]314 [Compound 10, 17-cyclopropylmethyl-6,7-didehydro-4,5α-epoxy-3,14β-dihydroxy-1',7'-trimethylene-5'-fluoro-6,7,2',3'-indolomorphinan]	1.58	0.0157		
Cc1ccc2c3c1c1c(n3CCC2)[C@@H]2Oc3c(O)ccc4c3[C@@]23CCN(CC2CC2)[C@H](C4)[C@]3(O)C1 [Compound 5, 17-cyclopropylmethyl-6,7-didehydro-4,5α-epoxy-3,14β-dihydroxy-1',7'-trimethylene-4'-methyl-6,7,2',3'-indolomorphinan]	5.01	0.0208		
Oc1ccc2c3c1O[C@H]1c4c(c5cccc6c5n4CCC6)C[C@@]4(O)[C@@H](C2)N(CCc2cccs2)CC[C@]314 [Compound 65, 17-(thiophene-2-ylethyl)-6,7-didehydro-4,5α-epoxy-3,14β-dihydroxy-1',7'-trimethylene-6,7,2',3'-indolomorphinan]			0.03	IC50 (δ-opioid [2]): 33.9 nM
Oc1ccc2c3c1O[C@H]1c4c(c5cccc6c5n4CCC6)C[C@@]4(O)[C@@H](C2)N(CC2CC2)CC[C@]314 [Compound 4, 17-cyclopropylmethyl-6,7-didehydro-4,5α-epoxy-3,14β-dihydroxy-1',7'-trimethylene-6,7,2',3'-indolomorphinan]	0.398	0.00858		
Oc1ccc2c3c1O[C@H]1c4c(c5cccc6c5n4CCC6)C[C@@]4(O)[C@@H](C2)N(CC2CCC2)CC[C@]314 [Compound 56, 17-cyclobutylmethyl-6,7-didehydro-4,5α-epoxy-3,14β-dihydroxy-1',7'-trimethylene-6,7,2',3'-indolomorphinan]			6.21	IC50 (δ-opioid [2]): 2.96 nM
COc1ccc2c3c1O[C@H]1c4c(c5cccc6c5n4CCC6)C[C@@]4(O)[C@@H](C2)N(CC2CC2)CC[C@]314 [Compound 11, 17-Cyclopropylmethyl-6,7-didehydro-4,5α-epoxy-3-methoxy-14β-hydroxy-1',7'-trimethylene-6,7,2',3'-indolomorphinan]		0.00343		pA2 (δ-opioid [1]): 8.2
